Assay results reported in patent publication US20050261246A1, “Methods for treating inflammatory and autoimmune diseases” (priority 2004, published 2005).

Tests used:
[1] = test system: arthritic rats; settings: cited from earlier work
[2] = test system: TNF-α production by macrophages; settings: LPS- or bacteria-induced; cited from earlier work
[3] = healthy mice; cited from earlier work
[4] = test system: VEGF production in human cancer cell lines; experiment: VEGF production in human cancer cell lines (ELISA); assay type: cell-based
Protocol: (A) Effect of SNS on VEGF production was analyzed in two cancer cell lines (both supernatants and cell lysates). (B) The supernatant from control and drug treated H460 cells was analyzed for the level of VEGF (pg/ml). C. […] Statistical analyses were performed using one-way ANOVA.
As discussed above, SNS and pancratastatin were originally synthesized as an anti-cancer agent. The inventors also examined the effect of SNS and pancratastatin on the production of VEGF in human cancer cell lines (FIG. 2). […] This analysis had been performed at least 3-5 times depending on the cell lines and drug used, with statistical analysis performed using one-way ANOVA.

[5] = test system: Japanese encephalitis; settings: flavivirus infection; cited from earlier work
[6] = test system: Encephalitozoan intestinalis; settings: cited from earlier work
[7] = test system: tumor growth; settings: cited from earlier work

Row | SMILES | footpad volumes, severe chronic inflammation ([1]; day 21 post-CFA challenge, treated vs untreated arthritic rats) | inflammation, acute phase ([1]; given from the time of CFA challenge, day 14 post-CFA challenge) | TNF-α production by macrophages [2] | growth rate [3] | VEGF production, narcistatin compared with pancratistatin [4] | effect on VEGF production/secretion ([4]; human cancer cell lines, ELISA) | survival rate [5] | activity against the parasite [6] | potency in inhibiting tumor growth relative to SNS [7]
1 | O=C1N[C@@H]2C(=C[C@H](O)[C@@H](O)[C@H]2O)c2cc3c(c(O)c21)OCO3 [narciclasine] | no differences in their footpad volumes | able to inhibit inflammation during the acute inflammatory phase | inhibits lipopolysaccharide (LPS)- or bacteria-induced production of TNF-α by macrophages | inhibits the growth rate of healthy mice | – | – | – | – | –
2 | O=C1N[C@H]2[C@H](O)[C@H](O)[C@@H](O)[C@H](O)[C@@H]2c2cc3c(c(O)c21)OCO3 [pancratistatin] | – | – | – | – | comparable inhibition on VEGF production | inhibitory effect | up to 100% | activity against the parasite Encephalitozoan intestinalis | more potent than SNS in inhibiting tumor growth
